The results in this text go back to patent US9592407B2, “Pharmaceutical composition and uses thereof” (CHANG GUNG MEMORIAL HOSPITAL, LINKOU, priority 2012, dated 2017).

Molecules are shown by their SMILES. Read-outs that look alike come from different tables or passages of the source.

In general, IC50 refers to the concentration needed to halve the response being measured.

Assay [1] deals with BAX. Nature of the assay: BAX mitochondrial translocation and oligomerization in liver cancer cells (Example 4). The class given is cell-based, Human. As to conditions: Hep3B and Mahlavu cells. An excerpt: FIG. 6A illustrates the expression of NPM and BAX in the cytosol and the mitochondria of Mahlavu liver cancer cells following UV irradiation with or without transfected siRNA targeting NPM (NPM) or siRNA with scrambled sequences (NS). FIG. 6B illustrates the effect of siNPM and siNS on BAX dimmers (indicated with an asterisk) and BAX oligomers (twin-asterisk) in the mitochondria or the nuclei.
FIG. 6A illustrates cytoplasmic NPM increased after UV irradiation, whereas BAX increased in the cytosol and mitochondria after UV irradiation. Suppressing NPM expression by siRNA reduced the cytosolic BAX, while mitochondrial BAX level increased. […] Prohibitin (PHB) and glyceraldehyde 3-phosphate dehydrogenase (GAPDH) were used as the markers for mitochondrial and cytosolic components, respectively. Similar result for mitochondrial BAX enhancement was observed by inhibiting NPM with chemotherapeutic agents, such as staurosporin in Hep3B and Mahlavu cells.
A non-reducing condition for preparing cellular proteins was employed to validate the above findings.

Assay [2] deals with BAX. Nature of the assay: Induction of BAX expression by cellular stresses (Example 2). The class given is cell-based, Human. As to conditions: all three HCC cell lines following treatment. An excerpt: (§1) A subset of NPM was translocated to cytoplasm 6 hr after UV irradiation (indicated by an arrow in the right panel).
(§2) The expression of β-actin was used as the loading control. Simultaneous induction of BAX (pro-apoptosis) and NPM (anti-apoptosis) of cells upon cellular stress represents counteracting mechanisms regulating apoptosis versus survival response.

In another assay the test system is NPM. Description: Induction of NPM expression by cellular stresses (Example 2). The class given is cell-based, Human. The following applies: HCC cell lines following exposure; cisplatin 5.5, 69, 6.4 μg/ml, doxorubicin 1.4, 8.8, 5 μg/ml.
Text: as §1, §2

A further assay has as its system HeLa (Cervical). Description: Combination drug treatment, Combination Index and IC50 (Example 6). The class given is cell-based. An excerpt: (§3) Chou: Theoretical Basis, Experimental Design, and Computerized Simulation of Synergism and Antagonism in Drug Combination Studies, Pharmacological Reviews.
A further assay has as its system Mahlavu (HCC). The description is as above. The class given is cell-based, Human.
Text: as §3

Where [3] appears, read: Homo sapiens, concentration of the named drug in Lapatinib + NSC348884 combination therapy, 72 hours, read-out: IC50 Combination Therapy.
Setting [4] is: Homo sapiens, monotherapy, 72 hours after exposure, read-out: IC50 Monotherapy.
The mark [5] stands for this setting: concentration of the named drug in Lapatinib + NSC348884 combination therapy, 72 hours, read-out: IC50 Combination Therapy.
Setting [6] is: monotherapy, 72 hours after exposure, read-out: IC50 Monotherapy.

As to `CN[C@@H]1C[C@H]2O[C@@](C)([C@@H]1OC)n1c3ccccc3c3c4c(c5c6ccccc6n2c5c31)C(=O)NC4` [staurosporin], the “mitochondrial BAX” value in the assay with BAX [1] was “enhancement”.
On to `COc1cccc2c1C(=O)c1c(O)c3c(c(O)c1C2=O)C[C@@](O)(C(=O)CO)C[C@@H]3O[C@H]1C[C@H](N)[C@H](O)[C@H](C)O1` [doxorubicin], for which, in the assay with BAX [2], the BAX expression result is on record as “increased”. Further, the NPM expression result in the assay with NPM is on record as “upregulated”.
With `CS(=O)(=O)CCNCc1ccc(-c2ccc3ncnc(Nc4ccc(OCc5cccc(F)c5)c(Cl)c4)c3c2)o1` [Lapatinib], the IC50 in the assay with HeLa (Cervical) (setting [3]) is 18.4 µM; in the assay with HeLa (Cervical) (setting [4]), 20.8 µM; in the assay with Mahlavu (HCC) (setting [3]), 14.4 µM; in the assay with Mahlavu (HCC) (setting [4]) it was 12.8 µM.
For `Cc1ccc2nc(CN(CCN(Cc3nc4ccc(C)cc4[nH]3)Cc3nc4ccc(C)cc4[nH]3)Cc3nc4ccc(C)cc4[nH]3)[nH]c2c1` [NSC348884], the 50% inhibitory concentration (IC50) in the assay with HeLa (Cervical) (setting [5]) was determined as 4.92 µM; in the assay on HeLa (Cervical) (setting [6]), 6.24 µM; with Mahlavu (HCC) (setting [5]) it was 3.84 µM; in the assay with Mahlavu (HCC) (setting [6]), 6.15 µM.
As for `N.N.[Cl][Pt][Cl]` [cisplatin], the BAX expression result with BAX [2] is “increased”. For the same molecule, the NPM expression result in the assay with NPM is “upregulated”.
